Molecular target: Aβ(1–40) fibrils (Homo sapiens, UniProt P05067)
Assay: radioligand displacement of [3H]Chrysamine-G, filtration assay
Type: binding

Sequence of Aβ(1–40) fibrils (P05067 672-711): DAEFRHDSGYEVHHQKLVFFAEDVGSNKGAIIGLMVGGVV

Ki | SMILES
21 nM | COc1cc(/C=C/c2ccc(/C=C/c3ccc(O)c(O)c3)cc2)ccc1O [X:034-3-OMe1, (E,E)-1-(3’,4’-dihydroxystyryl)-4-(3’-methoxy-4’hydroxystyryl)benzene]
0.13 nM | O=C(O)c1cc(/C=C/C=C/c2ccc(/C=C/C=C/c3ccc(O)c(C(=O)O)c3)cc2)ccc1O [X:EE:B34, 1,4-bis[(1E,3E)-4-(3’-carboxy-4’-hydroxyphenyl)-1,3-butadienyl]-benzene]
